{"source": "patent US6890955B2", "about": "“Aryloxypropanolamine derivatives, method of preparation and applications thereof” (Virbac SA, priority 1996, dated 2005)", "data": [{"smiles": "Oc1cccc(OCC(O)CNCc2ccc3c(c2)OCO3)c1", "note": "(stereo not shown) [Compound 1e, N-((1,3-Benzodioxol-5-yl)methyl)-2-hydroxy-3-(3-hydroxyphenoxy)propylamine]", "values": [{"measurement": "melting point", "result": "230 to 231", "unit": "°C"}]}]}
